Results taken from ChEMBL document CHEMBL1154216, “Development of a novel expression, ZI MAX/K ZI, for determination of the counter-anion effect on the antimicrobial activity of tetrabutylammonium salts” (2009).

Assays:
Escherichia coli = experiment: Antimicrobial activity against Escherichia coli K-12 C600 assessed as ratio of maximum zone of inhibition to concentration required to reach half maximum zone of inhibition after 24 hrs; format: functional
[1] = test system: Staphylococcus epidermidis; format: functional, ATCC 12228
Description: Antimicrobial activity against Staphylococcus epidermidis ATCC 12228 assessed as ratio of maximum zone of inhibition to concentration required to reach half maximum zone of inhibition after 24 hrs

CCCC[N+](CCCC)(CCCC)CCCC.[OH-] [TETRABUTYLAMMONIUM HYDROXIDE]
ZImax/KZI (Escherichia coli): 4.06 mm microL/micromol | ZImax/KZI [1]: 27.17 mm microL/micromol

CC(=O)[O-].CCCC[N+](CCCC)(CCCC)CCCC [TETRABUTYLAMMONIUM ACETATE]
ZImax/KZI (Escherichia coli): 4.2 mm microL/micromol | ZImax/KZI [1]: 37.88 mm microL/micromol

CCCC[N+](CCCC)(CCCC)CCCC.[I-] [TETRABUTYLAMMONIUM IODIDE]
ZImax/KZI (Escherichia coli): 0.381 mm microL/micromol | ZImax/KZI [1]: 140.85 mm microL/micromol

CCCC[N+](CCCC)(CCCC)CCCC.O=S(=O)([O-])O [TETRABUTYLAMMONIUM HYDROGENSULFATE]
ZImax/KZI (Escherichia coli): 4.98 mm microL/micromol | ZImax/KZI [1]: 84.03 mm microL/micromol

CCCC[N+](CCCC)(CCCC)CCCC.O=S(=O)([O-])C(F)(F)F [TETRABUTYLAMMONIUM TRIFLUOROMETHANESULFONATE]
ZImax/KZI (Escherichia coli): 0.067 mm microL/micromol | ZImax/KZI [1]: 64.94 mm microL/micromol

CCCC[N+](CCCC)(CCCC)CCCC.O=[N+]([O-])[O-] [BIS(TETRABUTYLAMMONIUM)MONONITRATE]
ZImax/KZI (Escherichia coli): 0.333 mm microL/micromol | ZImax/KZI [1]: 30.67 mm microL/micromol

CCCC[N+](CCCC)(CCCC)CCCC.O=C([O-])c1ccccc1 [TETRABUTYLAMMONIUM BENZOATE]
ZImax/KZI (Escherichia coli): 0.333 mm microL/micromol | ZImax/KZI [1]: 39.81 mm microL/micromol

CCCC[N+](CCCC)(CCCC)CCCC.[Br-] [TETRABUTYLAMMONIUM BROMIDE]
ZImax/KZI (Escherichia coli): 0.516 mm microL/micromol | ZImax/KZI [1]: 16.69 mm microL/micromol

CCCC[N+](CCCC)(CCCC)CCCC.[O-][Cl+3]([O-])([O-])[O-] [TETRABUTYLAMMONIUM PERCHLORATE]
ZImax/KZI (Escherichia coli): 0 mm microL/micromol | ZImax/KZI [1]: 14.77 mm microL/micromol

CCCC[N+](CCCC)(CCCC)CCCC.Cc1ccc(S(=O)(=O)[O-])cc1
ZImax/KZI (Escherichia coli): 0 mm microL/micromol | ZImax/KZI [1]: 8.55 mm microL/micromol

CCCC[N+](CCCC)(CCCC)CCCC.[F-] [TETRABUTYLAMMONIUM FLUORIDE]
ZImax/KZI (Escherichia coli): 0.842 mm microL/micromol | ZImax/KZI [1]: 15.82 mm microL/micromol

CCCC[N+](CCCC)(CCCC)CCCC.N#C[S-] [TETRABUTYLAMMONIUM THIOCYANATE]
ZImax/KZI (Escherichia coli): 6.28 mm microL/micromol | ZImax/KZI [1]: 11.59 mm microL/micromol

CCCC[N+](CCCC)(CCCC)CCCC.[Cl-] [TETRABUTYLAMMONIUM]
ZImax/KZI (Escherichia coli): 0.382 mm microL/micromol | ZImax/KZI [1]: 23.58 mm microL/micromol

CCCC[N+](CCCC)(CCCC)CCCC.O=P([O-])(O)O [TETRABUTYLAMMONIUM DIHYDROGENPHOSPHATE]
ZImax/KZI (Escherichia coli): 0 mm microL/micromol | ZImax/KZI [1]: 23.58 mm microL/micromol

CCCC[N+](CCCC)(CCCC)CCCC.O=P[O-] [TETRABUTYLAMMONIUM PHOSPHENITE]
ZImax/KZI (Escherichia coli): 0.408 mm microL/micromol | ZImax/KZI [1]: 52.08 mm microL/micromol

CC(O)C(=O)[O-].CCCC[N+](CCCC)(CCCC)CCCC
ZImax/KZI (Escherichia coli): 0 mm microL/micromol | ZImax/KZI [1]: 103.09 mm microL/micromol

CCCC[N+](CCCC)(CCCC)CCCC.CS(=O)(=O)[O-] [TETRABUTYLAMMONIUM METHANESULFONATE]
ZImax/KZI (Escherichia coli): 0.167 mm microL/micromol | ZImax/KZI [1]: 23.53 mm microL/micromol

Br.Br.CCCC[N+](CCCC)(CCCC)CCCC.[Br-] [MONO(TETRABUTYLAMMONIUM)TRIBROMIDE]
ZImax/KZI (Escherichia coli): 37.59 mm microL/micromol | ZImax/KZI [1]: 48.08 mm microL/micromol

CCCC[N+](CCCC)(CCCC)CCCC.F[B-](F)(F)F [TETRABUTYLAMMONIUM TETRAFLUOROBORATE]
ZImax/KZI (Escherichia coli): 0.499 mm microL/micromol | ZImax/KZI [1]: 25.71 mm microL/micromol
